# Legend:
# [1] = biological target: PDE 1 (Ca-calmodulin activatable PDE); experiment: Phosphodiesterase inhibiting activity, PDE 1; type: biochemical; details: isozyme from dog heart; 1 μM [3H]-cAMP or [3H]-cGMP; read-out: Inhibition of PDE Activity: IC50 PDE 1
# Experimental: (§1) Pharmacological Test Example 1: Phosphodiesterase Inhibiting Activity
# (§2) Cyclic nucleotide phosphodiesterases from human platelets and from the heart and kidney of a dog were eluted by the concentration gradient method with 70 to 1000 mM of sodium acetate on DEAE-cellulose column chromatography (Whatman Co. Ltd., DE-52, φ3.2×13 cm) according to the method of Thompson and others (Thompson W. J., et al., Advances in Cyclic Nucleotide Research: 10, 69-92, 1979), and separated into isozymes. PDE 5 (cGMP specific PDE) and PDE 3 (cGMP inhibitable cAMP PDE) were separated from the platelets, PDE 1 (Ca-calmodulin activatable PDE) from the heart, and PDE 4 (cGMP non-inhibitable cAMP PDE) from the kidney. The method of Thompson, et al was partially modified to measure phosphodiesterase activities: 1 μM of [3H]-cAMP or [3H]-cGMP was decomposed with phosphodiesterase. The produced 5′-AMP or 5′-GMP was decomposed to adenosine or guanosine with a snake venom (Sigma V7000). The reaction solution was added to anion exchange resin (Bio-Rad Co. Ltd., AG1-X8). Non-adsorbed adenosine or guanosine was counted by a liquid scintillation counter. A concentration causing 50% inhibition of the enzyme activity (IC50) was calculated from concentration inhibition curves.
# PDE 2 = biological target: T1, PDE 2 (Homo sapiens, UniProt O00408); experiment: Phosphodiesterase inhibiting activity, PDE 2; type: biochemical; details: 1 μM [3H]-cAMP or [3H]-cGMP; source of isozyme not given; read-out: Inhibition of PDE Activity: IC50 PDE 2
# T1 construct: eluted by the concentration gradient method with 70 to 1000 mM of sodium acetate on DEAE-cellulose column chromatography; from tissue
# T1 sequence (O00408 whole entry): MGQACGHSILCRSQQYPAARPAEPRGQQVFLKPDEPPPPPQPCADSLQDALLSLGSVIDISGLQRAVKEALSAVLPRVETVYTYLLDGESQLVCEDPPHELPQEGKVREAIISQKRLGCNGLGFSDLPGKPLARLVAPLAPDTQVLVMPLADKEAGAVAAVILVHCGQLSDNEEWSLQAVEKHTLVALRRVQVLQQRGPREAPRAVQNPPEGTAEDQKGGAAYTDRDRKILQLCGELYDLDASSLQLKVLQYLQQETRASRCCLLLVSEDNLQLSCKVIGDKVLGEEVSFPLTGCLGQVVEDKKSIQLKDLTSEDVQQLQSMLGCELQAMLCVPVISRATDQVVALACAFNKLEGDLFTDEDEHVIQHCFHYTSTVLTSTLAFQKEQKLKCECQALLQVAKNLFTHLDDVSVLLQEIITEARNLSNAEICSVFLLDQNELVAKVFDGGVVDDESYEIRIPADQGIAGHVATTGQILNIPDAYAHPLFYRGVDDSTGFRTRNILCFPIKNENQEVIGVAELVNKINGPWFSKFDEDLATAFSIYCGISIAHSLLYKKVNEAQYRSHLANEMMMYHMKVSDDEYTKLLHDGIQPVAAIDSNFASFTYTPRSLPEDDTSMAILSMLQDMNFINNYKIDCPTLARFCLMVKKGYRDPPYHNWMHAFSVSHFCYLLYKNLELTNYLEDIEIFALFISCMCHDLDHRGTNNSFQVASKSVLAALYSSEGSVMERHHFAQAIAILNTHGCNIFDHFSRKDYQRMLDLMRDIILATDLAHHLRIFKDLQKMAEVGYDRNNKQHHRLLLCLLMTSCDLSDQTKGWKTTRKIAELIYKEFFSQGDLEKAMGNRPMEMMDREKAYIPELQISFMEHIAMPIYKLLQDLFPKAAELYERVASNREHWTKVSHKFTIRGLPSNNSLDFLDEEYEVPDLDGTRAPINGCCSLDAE
# Experimental: [Worded in the source for another target; this target is reported under the same test.] as §1, §2
# [2] = biological target: T2, PDE 3 (cGMP inhibitable cAMP PDE) (Homo sapiens, UniProt Q14432); experiment: Phosphodiesterase inhibiting activity, PDE 3; type: biochemical; details: isozyme from human platelets; 1 μM [3H]-cAMP or [3H]-cGMP; read-out: Inhibition of PDE Activity: IC50 PDE 3
# T2 construct: from tissue; host or cells: human platelets
# T2 sequence (Q14432 whole entry): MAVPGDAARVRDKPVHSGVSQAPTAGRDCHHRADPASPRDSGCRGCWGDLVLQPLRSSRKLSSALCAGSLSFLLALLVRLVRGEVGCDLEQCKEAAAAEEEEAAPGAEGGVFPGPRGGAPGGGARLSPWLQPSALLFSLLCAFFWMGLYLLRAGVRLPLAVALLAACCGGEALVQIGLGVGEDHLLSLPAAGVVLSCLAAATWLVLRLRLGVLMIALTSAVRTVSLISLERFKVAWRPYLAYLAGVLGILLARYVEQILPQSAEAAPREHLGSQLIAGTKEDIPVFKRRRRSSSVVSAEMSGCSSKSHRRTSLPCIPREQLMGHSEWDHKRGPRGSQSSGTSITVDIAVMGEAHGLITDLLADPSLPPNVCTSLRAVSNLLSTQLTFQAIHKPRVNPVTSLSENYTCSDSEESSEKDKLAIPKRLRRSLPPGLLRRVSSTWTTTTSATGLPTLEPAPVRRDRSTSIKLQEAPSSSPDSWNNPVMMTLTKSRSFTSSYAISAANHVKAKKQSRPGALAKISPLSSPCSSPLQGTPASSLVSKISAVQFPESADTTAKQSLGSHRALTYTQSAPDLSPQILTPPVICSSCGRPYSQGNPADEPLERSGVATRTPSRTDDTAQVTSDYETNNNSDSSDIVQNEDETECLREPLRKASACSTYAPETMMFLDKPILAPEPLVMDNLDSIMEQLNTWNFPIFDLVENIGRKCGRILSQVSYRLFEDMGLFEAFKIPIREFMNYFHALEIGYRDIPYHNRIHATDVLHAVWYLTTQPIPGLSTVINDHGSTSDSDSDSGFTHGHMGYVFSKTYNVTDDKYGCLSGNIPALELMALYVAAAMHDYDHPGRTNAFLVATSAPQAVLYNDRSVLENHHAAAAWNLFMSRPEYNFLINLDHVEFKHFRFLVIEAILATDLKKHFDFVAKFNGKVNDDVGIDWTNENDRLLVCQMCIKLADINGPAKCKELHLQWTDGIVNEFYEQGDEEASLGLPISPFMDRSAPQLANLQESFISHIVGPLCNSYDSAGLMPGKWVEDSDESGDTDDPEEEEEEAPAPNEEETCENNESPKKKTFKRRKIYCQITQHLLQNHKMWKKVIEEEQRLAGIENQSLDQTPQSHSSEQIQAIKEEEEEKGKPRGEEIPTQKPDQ
# Experimental: as §1, §2
# [3] = biological target: PDE 4 (cGMP non-inhibitable cAMP PDE); experiment: Phosphodiesterase inhibiting activity, PDE 4; type: biochemical; details: isozyme from dog kidney; 1 μM [3H]-cAMP or [3H]-cGMP; read-out: Inhibition of PDE Activity: IC50 PDE 4
# Experimental: as §1, §2
# [4] = biological target: T3, PDE 5 (cGMP specific PDE) (Homo sapiens, UniProt O76074); experiment: Phosphodiesterase inhibiting activity, PDE 5; type: biochemical; details: isozyme from human platelets; 1 μM [3H]-cAMP or [3H]-cGMP; read-out: Inhibition of PDE Activity: IC50 PDE 5
# T3 construct: from tissue; host or cells: human platelets
# Experimental: as §1, §2
# thoracic aortas = experiment: Vasodilating activity, phenylephrine-contracted thoracic aorta ring preparations (Magnus method); set-up: species or system Sprague-Dawley male rats; details: rat thoracic aorta ring preparations contracted with 1 μM phenylephrine, 37° C., drug added cumulatively
# Experimental: Pharmacological Test Example 2: Vasodilating Activity
# A vasodilating activity was assessed according to the method of Ken-ichi Hirata and Mitsuhiro Yokoyama (Arteriosclerosis and Hyperlipemia Research Strategies, published by Shujunsha (Japan), pages 275-277, 1996): The thoracic aortas were extracted from Sprague-Dawley male rats (weighing 180 to 360 g). After unnecessary connective tissues were removed, the aortas were cut to 5mm-long pieces to make ring strip preparations, and assessed by the Magnus method (37° C.). A nutrient solution used was a Krebs-Henseleit solution aerated with 5% carbon dioxide gas and 95% oxygen gas. Specimens were equilibrated for about 60 minutes, and then contracted by adding 1 μM of phenylephrine. 1 μM of acetylcholine was added at the second phenylepherine-induced contraction in order to confirm an endothelial cell dependent relaxation response. At the third phenylepherine-induced contraction, a drug to test was added cumulatively, and the relaxation action was observed. Drugs to test were all dissolved in DMSO to use for the tests. The tested drugs were assessed by 50% relaxation rates (EC50) obtained from vasodilation rates to respective concentrations (the maximum relaxation was measured by adding 100 μM of papaverine).
SMILES,IC50 [1] [µM],IC50 (PDE 2) [µM],IC50 [2] [µM],IC50 [3] [µM],IC50 [4] [nM],EC50 (thoracic aortas) [nM]
COc1ccc(CNc2nc(-c3ccc4c(c3)OCO4)nc3sc4c(c23)CCN(Cc2ccccc2)C4)cc1Cl [1-1],> 10,3.9,> 10,> 10,0.92,86
COc1ccc(CNc2nc(-c3cccnc3)nc3sc4c(c23)CCN(Cc2ccccc2)C4)cc1Cl [1-4],> 10,2.7,6.1,2,2.6,19
"CCOC(=O)N1CCc2c(sc3nc(-c4cccnc4)nc(NCc4ccc(OC)c(Cl)c4)c23)C1 [1-15, 5,6,7,8-tetrahydro-4-[(3-chloro-4-methoxy)benzylamino]-7-ethoxycarbonyl-2-(3-pyridyl)pyrido[4′,3′:4,5]thieno[2,3-d]pyrimidine]",–,–,–,–,–,2.1
CCOc1ccccc1NC(=O)c1nc(NCc2ccc(OC)c(Cl)c2)c2c3c(sc2n1)CN(C(C)C)CC3 [1-55],> 10,> 10,> 10,2,62,180
COc1ccc(CNc2nc(C(=O)Nc3nccs3)nc3sc4c(c23)CCN(C)C4)cc1Cl [1-57],> 10,> 10,> 10,> 10,0.55,2.7
COc1ccc(CNc2nc(C(=O)Nc3ccncc3)nc3sc4c(c23)CCN(C)C4)cc1Cl [1-58],> 10,> 10,> 10,> 10,2.1,5.1
COc1ccc(CNc2nc(C(=O)Nc3ccc(-n4ccnc4)cc3)nc3sc4c(c23)CCN(C)C4)cc1Cl [1-59],> 10,6.1,7.6,3.4,78,7.6
COc1ccc(CNc2nc(C(=O)Nc3ccccc3Cl)nc3sc4c(c23)CCN(C)C4)cc1Cl [1-60],> 10,> 10,> 10,3.6,14,7.5
"COc1ccc(CNc2nc(C(=O)Nc3ccc(Cl)cc3)nc3sc4c(c23)CCN(C)C4)cc1Cl [1-61, 5,6,7,8-tetrahydro-4-[(3-chloro-4-methoxy)benzylamino]-7-methylpyrido[4′,3′:4,5]thieno[2,3-d]pyrimidine-2-N-(4-chlorophenyl)carboxamide]",> 10,> 10,> 10,> 10,0.92,8.7
COc1ccc(NC(=O)c2nc(NCc3ccc(OC)c(Cl)c3)c3c4c(sc3n2)CN(C)CC4)cc1 [1-62],> 10,> 10,> 10,> 10,2.4,7.2
COc1ccc(CNc2nc(C(=O)NC3CCCCC3)nc3sc4c(c23)CCN(C)C4)cc1Cl [1-63],> 10,> 10,> 10,> 10,0.38,4.8
COc1ccc(CNc2nc(C(=O)Nc3ccccc3)nc3sc4c(c23)CCN(Cc2ccccc2)C4)cc1Cl [1-67],> 10,> 10,> 10,> 10,0.39,82
"CCOC(=O)c1nc(NCc2ccc(OC)c(Cl)c2)c2c3c(sc2n1)CN(C)CC3 [1-69, ethyl 5,6,7,8-tetrahydro-4-[(3-chloro-4-methoxy)benzylamino]-7-methylpyrido[4′,3′:4,5]thieno[2,3-d]pyrimidine-2-carboxylate]",> 10,> 10,> 10,> 10,31,18
COc1ccc(CNc2nc(C(N)=O)nc3sc4c(c23)CCN(C)C4)cc1Cl [1-83],1.3,3.1,> 10,> 10,75,–
